Reference: paper PMC9925730, “Controlled sequential in situ self-assembly and disassembly of a fluorogenic cisplatin prodrug for cancer theranostics” (Nature Communications, 2023)
Values joined by “and” are separate entries in the source; they are usually repeats but may differ in a detail not shown here. Identical values can stand only once.

Legend:
[1] = CMC of CyPt and stability of PtIVNPs under different pH conditions; format: physicochemical; settings: for FL intensity at 710 nm: Supplementary Fig. 8 a
Protocol: Co n cen t rati o n (μM) Time (h) Time (h)
Supplementary Figure 8. Evaluation of the CMC and stability of PtIVNPs under different pH conditions. (a) Plots of the fluorescence intensity (λem = 710 nm) versus the concentration of CyPt in Tris buffer determine the CMC of CyPt, which was found to be ~0.3 μM according to the intersection of the two linear fit lines. (b, c) Monitoring of the hydrodynamic size of Pt IVNPs upon incubation under (b) pH = 5.0, and (c) pH = 7.4 (10 μM) for 0-24 h. Date denote mean ± s.d. (n = 3 independent experiments).
(also on this page, place not known: Na 3VO4 ( λem 850 800 Normalized FL intensity Tris Trypsin Caspase-3 Normalized FL intensity 200Diameter (nm) 10 Diameter (nm) 7.4(b) CMC=0.3 00 . . 51.0 Concentration FL intensity (1 X 105) 0 2 1.5 2.0 3.0 (c)(a))

s.c. HeLa tumors = assay: Ex vivo FL imaging of resected tumors and organs; format: in vivo, mice; settings: 4 h post i.v. injection
Protocol: Supplementary Figure 27. Ex vivo FL imaging of tumors and main organs. (a) Representative ex vivo FL images (λex/em = 660/750 ± 50 nm) and (b) average FL intensities of tumors and main organs resected from P-CyPt- or PtIVNPs-treated HeLa […]
200 μL). After 4 h, the mice were sacrificed. Tumors (T) and main organs, including liver (L), heart (H), spleen (Sp), lung (Lu), kidney (K), stomach (St), and intestine (In) were resected, and the FL images were acquired on the IVIS spectrum imager. Values denote mean ± s.d. (n = 3 independent animals). Statistical difference was analyzed by Student’s two-sided t-test. Source data are provided as a Source Data file.
Supplementary Figure 28. FL imaging of resected tumor tissue slices. FL images of tumor tissue slices (10 μm thickness) resected from s.c. HeLa tumor-bearing mice at 4 h after i.v. injection of PBS (200 μL), PtIVNPs or P-CyPt (100 μM, 200 μL). Cell nuclei were co-stained with DAPI (blue). […]
μm. […] The fluorescence images of the MCTS were captured on a Leica TCS SP8 confocal laser scanning microscope, microscope (TCS SP8 STED 3X) with 10x/0.4 dry lens (Leica), and captured at RGB on a HyD detector (Leica Dmi8) under PI and Cy5.5 channels. […]
were sacrificed after 4 h. […] The fluorescence images of these organs and tumors were acquired with the IVIS Lumina XR III imaging system using a 660 nm excitation filter and a 750 ± 50 nm emission filter. […]

ALP [2] = molecular target: T1, ALP (Bos taurus, UniProt P19111); assay: Sensitivity of P-CyPt towards ALP (detection limit); format: biochemical; settings: for Normalized FL intensity at 710 nm (individual replicates) / Normalized FL intensity at 710 nm, mean: Supplementary Fig. 6b
T1 construct: Alkaline phosphatase from bovine; purchased Sigma-Aldrich; host or cells: bovine intestinal mucosa (tissue-derived)

ALP [3] = assay: Dephosphorylated efficacy of P-CyPt towards varying concentrations of ALP (NIR fluorescence); format: biochemical; settings: 250 μM

T1 sequence (P19111 20-506 limits assumed): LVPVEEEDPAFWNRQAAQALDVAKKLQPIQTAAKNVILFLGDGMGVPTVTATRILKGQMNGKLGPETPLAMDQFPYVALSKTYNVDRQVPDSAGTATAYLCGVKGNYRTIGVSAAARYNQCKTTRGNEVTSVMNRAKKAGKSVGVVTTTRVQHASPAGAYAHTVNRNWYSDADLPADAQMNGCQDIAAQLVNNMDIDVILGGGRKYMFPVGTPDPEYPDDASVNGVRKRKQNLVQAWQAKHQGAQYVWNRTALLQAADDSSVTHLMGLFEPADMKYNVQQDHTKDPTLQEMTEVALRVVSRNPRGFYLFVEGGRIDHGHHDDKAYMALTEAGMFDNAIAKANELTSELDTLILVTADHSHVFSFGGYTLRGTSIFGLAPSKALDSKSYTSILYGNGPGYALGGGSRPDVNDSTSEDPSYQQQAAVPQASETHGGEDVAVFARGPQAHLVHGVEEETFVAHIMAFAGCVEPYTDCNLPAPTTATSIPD

CC1(C)C(/C=C/C2=C3Oc4cc(O)c(Cl)cc4C=C3CCC2)=[N+](CCCNC(=O)[C@@H](Cc2ccccc2)NC(=O)[C@@H](Cc2ccccc2)NC(=O)CCC(=O)[O][Pt]([NH2])([NH2])([OH])([Cl])[Cl])c2ccccc21 [CyPt]
FL intensity at 710 nm ([1]; concentration of CyPt 0.05 μM): 2780
FL intensity at 710 nm ([1]; concentration of CyPt 0.1 μM): 5650
FL intensity at 710 nm ([1]; concentration of CyPt 0.2 μM): 11030
FL intensity at 710 nm ([1]; concentration of CyPt 0.3 μM): 17800
FL intensity at 710 nm ([1]; concentration of CyPt 0.5 μM): 19720
FL intensity at 710 nm ([1]; concentration of CyPt 1 μM): 24040
FL intensity at 710 nm ([1]; concentration of CyPt 2 μM): 35120
FL intensity at 710 nm ([1]; concentration of CyPt 3 μM): 46610
critical micellar concentration (CMC) ([1]; Tris buffer, fluorescence at 710 nm): ≈ 0.3 μM

CC1(C)C(/C=C/C2=C3Oc4cc(OP(=O)(O)O)c(Cl)cc4C=C3CCC2)=[N+](CCCNC(=O)[C@@H](Cc2ccccc2)NC(=O)[C@@H](Cc2ccccc2)NC(=O)CCC(=O)[O][Pt]([NH2])([NH2])([OH])([Cl])[Cl])c2ccccc21 [P-CyPt]
ex vivo tumor FL intensity higher than Pt^IVNPs-treated tumors (s.c. HeLa tumors): ~ 3.2 fold
Normalized FL intensity at 710 nm (individual replicates) (ALP [2]; ALP concentration 0 U/L): 0.8554 and 0.8726 and 0.8742
Normalized FL intensity at 710 nm, mean (ALP [2]; ALP concentration 0 U/L): 0.867
Normalized FL intensity at 710 nm (individual replicates) (ALP [2]; ALP concentration 0.5 U/L): 0.9653 and 1.0053 and 1.0982
Normalized FL intensity at 710 nm, mean (ALP [2]; ALP concentration 0.5 U/L): 1.023
Normalized FL intensity at 710 nm (individual replicates) (ALP [2]; ALP concentration 1 U/L): 1.1743 and 1.1873 and 1.137
Normalized FL intensity at 710 nm, mean (ALP [2]; ALP concentration 1 U/L): 1.166
Normalized FL intensity at 710 nm (individual replicates) (ALP [2]; ALP concentration 2 U/L): 1.4406 and 1.5171 and 1.5718
Normalized FL intensity at 710 nm, mean (ALP [2]; ALP concentration 2 U/L): 1.510
Normalized FL intensity at 710 nm (individual replicates) (ALP [2]; ALP concentration 5 U/L): 2.2381 and 2.3195 and 2.3579
Normalized FL intensity at 710 nm, mean (ALP [2]; ALP concentration 5 U/L): 2.305
Normalized FL intensity at 710 nm (individual replicates) (ALP [2]; ALP concentration 10 U/L): 3.458 and 3.6281 and 3.6545
Normalized FL intensity at 710 nm, mean (ALP [2]; ALP concentration 10 U/L): 3.580
Normalized FL intensity at 710 nm (individual replicates) (ALP [2]; ALP concentration 15 U/L): 4.5389 and 4.8786 and 4.9735
Normalized FL intensity at 710 nm, mean (ALP [2]; ALP concentration 15 U/L): 4.797
Normalized FL intensity at 710 nm (individual replicates) (ALP [2]; ALP concentration 20 U/L): 5.7617 and 5.8661 and 6.3529
Normalized FL intensity at 710 nm, mean (ALP [2]; ALP concentration 20 U/L): 5.994
detection limit for ALP (ALP [2]; P-CyPt 10 μM, 30 min, 3σ/k method): ~ 0.098 U/L
normalized signal over time (section 'Supplementary Fig. 2c'), mean of 3 (ALP [3]; time 260 min): 0.996
normalized signal over time (section 'Supplementary Fig. 2c'), mean of 3 (ALP [3]; time 280 min): 0.9965
normalized signal over time (section 'Supplementary Fig. 2c'), mean of 3 (ALP [3]; time 320 min): 0.9972
normalized signal over time (section 'Supplementary Fig. 2c'), mean of 3 (ALP [3]; time 440 min): 0.9986
